Test results reported in patent US20030170731A1, “Diagnosis and treatment of non-ulcer dyspepsia based on hypothalamic-pituitary-adrenal axis abnormallity” (priority 2000, published 2003).

Tested on: CRH receptors
Assay: CRH/ACTH test: plasma ACTH after intravenous ovine CRH, immunoradiometric assay
Assay type: in vivo, human
Details: ovine CRH 100 μg intravenously
Excerpt: A total of ten patients with NUD were recruited from the Gastroenterology Clinic at St. James's Hospital, Dublin. Patients consisted of six men and four woman between the ages of twenty eight and forty five. They were matched for age and sex with ten healthy volunteers. To be included in the study patients had at least four of the following symptoms for at least three months: early satiety, upper abdominal pain, post prandial bloating, excessive flatulence, borborygmus, and nausea and/or vomiting. They all had normal results on physical examination. Endoscopic examination, twenty-four hour ambulatory pH monitoring, abdominal ultrasound were all negative. Five patients with H. pylori infestation were tested both before and after H. pylori eradication. The other five patients had no evidence of H. pylori infection. None of the patients had evidence of a formal psychiatric illness. Also none of the patients fulfilled the criteria for IBS.
Patients who were H. pylori positive were re-tested six months after commencing eradication therapy. In all cases endocrine tests were commenced at 1400 h. The test procedure was as follows. […]
Plasma ACTH was measured using a two site unextracted immunoradiometric assay with a commercially available kit supplied by the Nichols Institute (San Juan Capistrano, Calif.). […]

Substance: ovine CRH: ovine variant of corticotropin releasing hormone, given intravenously as a challenge agent
- CRH/ACTH enhancement following H. pylori eradication therapy (H. pylori positive NUD patients re-tested six months after commencing eradication therapy): persists
- plasma ACTH response following CRH stimulation (NUD patients with and without H. pylori infection, relative to healthy volunteers, blood at 15-120 min): vastly enhanced
